Assay results reported in PMC9165921 (Molecular Biology, 2022).

Test system: SARS-CoV-2 strain PIK35
Test: microbe, parasite or virus in culture
Type: cell-based
Conditions: Severe acute respiratory syndrome coronavirus 2, Vero, 120 h

Question: How did the EC50 turn out when O=c1nc(NO)ccn1[C@@H]1O[C@H](CO)[C@@H](O)[C@H]1O [N^4-hydroxycytidine] was run?
Answer: The EC50 was greater than 5 µM.
